These results are taken from publication PMC11308363, “Bioinformatic, Enzymatic, and Structural Characterization of Trichuris suis Hexosaminidase HEX-2” (Biochemistry, 2024).

For data set [1], the target named is T1, T. suis HEX-2 (Trichuris suis, UniProt A0A085NCI8).
T1 construct: gene M514_07548; recombinant C-terminally His-tagged, secreted from Pichia; residues 85–620 (long) or 135–620 (short) of the predicted protein
The data set is described as follows: pNP-β-GalNAc hydrolysis assay with purified enzyme, Ki fitted in Prism. Type of data set: biochemical.

Substrate in data set [2]: CC(=O)N[C@H]1[C@H](Oc2ccc([N+](=O)[O-])cc2)O[C@H](CO)[C@H](O)[C@@H]1O
The data set is described as follows: Michaelis–Menten kinetics, absorbance assay with purified enzyme (apparent Km). Type of data set: biochemical, Trichuris suis.

Turning to GalNAc-isofagomine, the Ki in data set [1] is 600 nM.

B1: T. suis HEX-2 (Trichuris suis) (protein)
chain: SNVFIPKRRIVHLDLKGAAPKPQHFRAFFEYFVRIGATGILIEWEDMFPYEGRLSDLRNGDAYSADDVRMILSTADQLRLEVIPLVQTIGHLEWLLKTHKFYSFRENPRNPQSVCVSNAEAVDLVLHLVDQVMAFHKDYGQFVHIGADEVYQYGECSRCVARMNKENLRREDLLLRHIVNVSKHVKTKYGKNVLMWHDMIANIDASLAEKYDLKNLVEPVLWNYAEDLEAFLPMGIWETFSAMVPYMWGSSAFKGADSPTRYHSNVKHYLENHISWIKQMSTASEKFREFRGLIFTGWQRYDHFAVLCEFLPIGIPSLTVNMLTIRNGRFDASVNDQAISIMQCVTGSDVKGDLYGCRFPGSDIYHHVQLLHEKKGEIEKLLLQQSVQGWLSNIAIDYNMSSPWYMNLIVPDLMTYKNQMIELSLNIRQAMLEMFYENAVDEFLFTYVDPVINHLQRLLDRATAIQRRDEFPVRPFPIKRTIDTTR
notes: recombinant C-terminally His-tagged, secreted from Pichia; residues 85–620 (long) or 135–620 (short) of the predicted protein
Turning to B1, the Km in data set [2] amounted to 900 µM.

For orientation: Ki means the equilibrium dissociation constant of an inhibitor or competing ligand from its target. Lower therefore signals a stronger hold on the target. For orientation: Km means the concentration of substrate that gives half-maximal velocity.
